# According to patent publication US8492425B2, “5-methyl-1-(naphthalen-2-yl)-1H-pyrazoles useful as sigma receptor inhibitors” (Laboratories Del Dr. Esteve, S.A., priority 2008, dated 2013):
# Like-named read-outs stand apart in the source and are kept apart here.
# Experiments:
# [1] = target: T1, sigma-1 receptor (Cavia porcellus, UniProt Q60492); assay: Sigma-1 receptor binding assay, [3H]-(+)-pentazocine displacement in guinea pig brain membranes; conditions: for IC50: radioligand [3H]-(+)-pentazocine 3.0 nM, 150 min at 37° C., read-out: IC50 (inhibitory concentration); for Ki: read-out: Ki (binding affinity)
# T1 construct: from tissue; host or cells: guinea pig brain membranes
# T1 sequence (Q60492 whole entry): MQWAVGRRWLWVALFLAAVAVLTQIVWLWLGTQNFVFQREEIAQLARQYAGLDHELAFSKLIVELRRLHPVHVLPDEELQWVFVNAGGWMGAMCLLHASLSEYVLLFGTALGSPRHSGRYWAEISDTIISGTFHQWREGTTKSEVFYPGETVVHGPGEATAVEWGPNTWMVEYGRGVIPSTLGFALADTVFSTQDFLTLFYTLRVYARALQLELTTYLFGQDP
IC50 ([1]; guinea pig brain membranes) [nM],Structure (SMILES),other results
> 1000,"Cc1cc(OCCN2CCOCC2)nn1-c1ccc2c(c1)C=CC(O)C2O (stereo not shown) [Compound 1, 6-(5-methyl-3-(2-morpholinoethoxy)-1H-pyrazol-1-yl)-1,2-dihydronaphthalene-1,2-diol]",
> 1000,"Cc1cc(OCCN2CCOCC2)nn1-c1ccc2ccc(O)cc2c1 [Compound 4, 4-{2-[1-(7-hydroxynaphthalen-2-yl)-5-methyl-1H-pyrazol-3-yloxy]ethyl}morpholine chlorhydrate]",
,"Cc1cc(OCCN2CCOCC2)nn1-c1ccc2c(O)cccc2c1 [Compound 3, 4-{2-[1-(5-hydroxynaphthalen-2-yl)-5-methyl-1H-pyrazol-3-yloxy]ethyl}morpholine]",Ki [1]: 329 nM
,"Cc1cc(OCCNCCO)nn1-c1ccc2ccccc2c1 [Compound 5, 2-(2-(5-methyl-1-(naphthalen-2-yl)-1H-pyrazol-3-yloxy)ethylamino)ethanol chlorhydrate]","Ki ([1]; guinea pig brain membranes, [3H]-(+)-pentazocine 3.0 nM, calculated from IC50 by the Cheng-Prussof equation): 102 nM"
> 1000,"Cc1cc(OCCN2CCOCC2)nn1-c1ccc2cc(O)ccc2c1 [Compound 2, 4-{2-[1-(6-hydroxynaphthalen-2-yl)-5-methyl-1H-pyrazol-3-yloxy]ethyl}morpholine chlorhydrate]",
> 1000,"Cc1cc(OCC[N+]2([O-])CCOCC2)nn1-c1ccc2ccccc2c1 [Compound 6, 4-(2-(5-methyl-1-(naphthalen-2-yl)-1H-pyrazol-3-yloxy)ethyl)morpholine 4-oxide]",
,"Cc1cc(OCCN2CCOCC2)nn1-c1ccc2ccc(O)cc2c1 (hydrate or solvate) [Compound 4, 4-{2-[1-(7-hydroxynaphthalen-2-yl)-5-methyl-1H-pyrazol-3-yloxy]ethyl}morpholine chlorhydrate]",melting point: 103 to 107 °C
